The values below come from patent US20110092703A1, “P2X4 RECEPTOR ANTAGONIST” (NIPPON CHEMIPHAR CO., LTD., priority 2007, published 2011).

Structures can show the parent of a compound that is named as a salt.

Series [1] addresses T1, P2X4 receptor (Homo sapiens, UniProt Q99571).
T1 sequence (Q99571 1-388): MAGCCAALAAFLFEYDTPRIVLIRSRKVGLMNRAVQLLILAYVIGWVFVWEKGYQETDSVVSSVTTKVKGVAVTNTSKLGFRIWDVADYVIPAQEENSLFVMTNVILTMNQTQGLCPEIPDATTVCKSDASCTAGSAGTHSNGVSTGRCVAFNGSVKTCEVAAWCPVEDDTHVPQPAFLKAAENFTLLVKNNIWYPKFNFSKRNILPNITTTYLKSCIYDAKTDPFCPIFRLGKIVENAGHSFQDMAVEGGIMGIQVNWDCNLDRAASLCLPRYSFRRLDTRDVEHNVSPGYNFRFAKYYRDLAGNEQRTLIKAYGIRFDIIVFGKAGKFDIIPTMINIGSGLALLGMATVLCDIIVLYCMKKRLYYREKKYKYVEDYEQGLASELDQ
The conditions noted are these: disclosed in WO 2007/049825 / Abstract P3-N-114; cited from earlier work.

Series [2] addresses T1, P2X4 receptor. The series can be described thus: P2X4 antagonism study by measurement of intracellular Ca2+ influx response. Conditions: 1321N1 cells stably expressing human P2X4; 1 μM ATP; compound 15 min before ATP; Fura-2 F340/F380; read-out: Inhibitory activity: IC50. Also on record: expressed in transfected cells. The format is cell-based. Here is the method: (§1) 1321N1 cells stably expressing human P2X4 receptors were adopted for calcium influx assay. P2X4/1321N1 cells were plated in 96-well assay plate and cultured 24 hours in an atmosphere of 5% CO2 at 37° C. Fura-2 AM calcium indicator in assay buffer (150 mM NaCl, 5 mM KCl, 1.8 mM CaCl2, 1.2 mM MgCl2, 10 mM D-glucose and 25 mM HEPES, pH 7.4) was loaded onto cells for 1 hour at room temperature and the fluorescence was detected by FLUOstar Optima micro plate reader (BMG labtech). The cells were alternatively illuminated with two excitations wavelengths (340 nm and 380 nm) via xenon lamp and the emitted fluorescence was measured at 510 nm. The fluorescence changes after the treatment of 1 μM ATP were monitored and determined the fluorescence ratio (F340/F380) as the index of intracellular calcium change. Tested compound were treated to cells 15 min before the addition of ATP and the inhibition activity of compounds was calculated by comparing the Ca^2+ response with control in the absence of tested compound.
as §1, with “pH7.4)” for “pH 7.4)”

The target in series [3] is T2, human Serotonin transporter (Homo sapiens, UniProt P31645).
T2 construct: expressed in transfected cells; cell membranes
T2 sequence (P31645 whole entry): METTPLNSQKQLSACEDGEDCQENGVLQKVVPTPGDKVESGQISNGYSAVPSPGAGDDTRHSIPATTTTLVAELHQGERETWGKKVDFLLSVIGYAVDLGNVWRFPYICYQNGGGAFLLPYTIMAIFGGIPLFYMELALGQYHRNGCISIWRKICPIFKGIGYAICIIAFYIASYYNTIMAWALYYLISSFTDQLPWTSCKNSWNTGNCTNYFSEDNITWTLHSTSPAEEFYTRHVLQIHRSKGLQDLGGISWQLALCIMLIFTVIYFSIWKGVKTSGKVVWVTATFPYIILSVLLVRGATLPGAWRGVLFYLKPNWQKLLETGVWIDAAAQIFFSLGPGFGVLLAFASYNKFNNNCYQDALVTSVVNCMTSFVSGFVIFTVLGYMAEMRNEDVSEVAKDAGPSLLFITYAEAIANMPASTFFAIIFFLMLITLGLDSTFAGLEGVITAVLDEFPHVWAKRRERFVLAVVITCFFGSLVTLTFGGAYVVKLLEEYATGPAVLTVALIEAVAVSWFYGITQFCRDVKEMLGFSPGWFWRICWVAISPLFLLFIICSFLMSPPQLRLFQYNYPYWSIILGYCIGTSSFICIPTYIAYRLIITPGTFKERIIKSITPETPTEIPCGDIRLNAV
The series can be described thus: [3H]paroxetine binding to serotonin transporter. Conditions: read-out: Percent inhibition (10^−7 M). Here is the method:
After incubation for 60 min at 25° C., the reaction was terminated by rapid filtration through GF/B glass fiber filter and rinsed with ice-cold incubation buffer. The retained radioactivity on filter was measured by a liquid scintillation counter. Nonspecific binding was defined with 10 μM imipramine and subtracted from total binding to determine specific binding. Inhibition activities of tested compounds were determined as a percent inhibition of the specific binding.

For a further series, the target named is T3, serotonin reuptake (Rattus norvegicus, UniProt P31652).
T3 construct: synaptosomes prepared from the rat brain; from tissue; host or cells: rat brain synaptosomes
T3 sequence (P31652 whole entry): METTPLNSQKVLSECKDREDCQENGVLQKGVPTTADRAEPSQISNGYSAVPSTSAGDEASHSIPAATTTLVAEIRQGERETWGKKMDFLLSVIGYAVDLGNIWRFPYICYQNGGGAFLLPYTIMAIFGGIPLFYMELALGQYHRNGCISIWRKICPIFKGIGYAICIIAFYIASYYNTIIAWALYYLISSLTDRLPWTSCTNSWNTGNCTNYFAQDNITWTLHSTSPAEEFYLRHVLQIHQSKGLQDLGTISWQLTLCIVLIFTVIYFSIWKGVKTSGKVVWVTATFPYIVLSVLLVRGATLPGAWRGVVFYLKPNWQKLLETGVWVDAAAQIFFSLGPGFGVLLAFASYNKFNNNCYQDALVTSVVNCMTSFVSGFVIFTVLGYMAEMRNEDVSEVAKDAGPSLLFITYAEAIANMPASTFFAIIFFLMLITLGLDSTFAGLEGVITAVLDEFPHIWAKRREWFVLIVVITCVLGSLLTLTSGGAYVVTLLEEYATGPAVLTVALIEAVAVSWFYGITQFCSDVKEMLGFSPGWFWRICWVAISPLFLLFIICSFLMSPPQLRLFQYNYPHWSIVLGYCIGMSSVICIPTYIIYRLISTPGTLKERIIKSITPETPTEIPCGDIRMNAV
The series can be described thus: Serotonin reuptake inhibition assay ([3H]serotonin, synaptosomes prepared from the rat brain). The format is biochemical. Conditions: 10^−7 M compound, 15 min at 37° C., read-out: Percent inhibition (10^−7 M).

Protocol for serotonin reuptake: 100 μg of the synaptosomes prepared from the rat brain were incubated for 15 min at 37° C. with 0.1 μCi [^3H]serotonin in the presence of tested compound in a buffer containing 106.2 mM NaCl, 4.5 mM KCl, 2.25 mM MgSO4, 1.08 mM NaH2PO4, 22.5 mM NaHCO3, 9.9 mM glucose, 9 μM EGTA and 45 μM ascorbic acid (pH 7.4). Basal control activity was determined by incubating the same mixture for 15 min at 4′C in the presence of 10 μM imipramine. Following incubation, the samples were filtered rapidly under vacuum through GF/B glass fiber filters and rinsed twice with ice-cold incubation buffer using a cell harvester. The retained radioactivity on filters was measured in TopCount scintillation counter. The results were expressed as a percent inhibition of the specific binding in the absence of tested compound.
100 μg of the synaptosomes prepared from the rat brain were incubated for 15 min at 37° C. with 0.1 μCi [^3H]serotonin in the presence of tested compound in a buffer containing 106.2 mM NaCl, 4.5 mM KCl, 2.25 mM MgSO4, 1.08 mm NaH2PO4, 22.5 mM NaHCO3, 9.9 mM glucose, 9 μM EGTA and 45 μM ascorbic acid (pH 7.4). Basal control activity was determined by incubating the same mixture for 15 min at 4° C. in the presence of 10 μM imipramine. […] The retained radioactivity on filters was measured in TopCount scintillation counter. […]

On to `CN(C)CCCN1c2ccccc2CCc2ccccc21` [imipramine], for which the “P2X4 receptor antagonism (in words)” value on P2X4 receptor [1] is “shows P2X4 receptor antagonism”.

In the case of `Cc1cc(C)c(N2CCNCC2COc2ccc(Cl)cc2)c(C)c1` (centres unmarked) [Example 7, 2-(4-Chlorophenoxymethyl)-1-(2,4,6-trimethylphenyl)piperazine hydrochloride], at P2X4 receptor [2], the concentration for half-maximal inhibition (IC50) was found to be 3.1 µM. Further, the inhibition at 0.1 µM in series [3] came out at 26%.

Turning to `CC(C)c1cccc(N2CCNCC2COc2ccc(OC(C)(C)C)cc2)c1` (centres unmarked) [Example 13, 2-(4-tert-Butoxyphenoxymethyl)-1-(3-isopropylphenyl)piperazine hydrochloride], at P2X4 receptor [2], the IC50 worked out at 2.9 µM.

As for `CC(C)c1cccc(N2CCNCC2COc2ccc(Cl)cc2)c1` (centres unmarked) [Example 3, 2-(4-Chlorophenoxymethyl)-1-(3-isopropylphenyl)piperazine hydrochloride], the concentration for half-maximal inhibition (IC50) at P2X4 receptor [2] was 8.3 µM. The inhibition at 0.1 µM in series [3] stood at 13%.

For `CC(C)c1ccc(N2CCNCC2COc2ccc(S(N)(=O)=O)cc2)cc1` (centres unmarked) [Example 15, 1-(4-Isopropylphenyl)-2-(4-sulfamoylphenoxymethyl)piperazine hydrochloride], the concentration for half-maximal inhibition (IC50) on P2X4 receptor [2] turned out to be 6.3 µM.

For the molecule `Clc1ccc(OCC2CNCCN2c2ccc3c(c2)CCC3)cc1` (centres unmarked) [Example 10, 2-(4-Chlorophenoxymethyl)-1-indan-5-yl-piperazine hydrochloride], at P2X4 receptor [2], the IC50 came out at 4.7 µM. Further, the inhibition at 0.1 µM in series [3] stood at 44%.

On to `CCCc1ccc(N2CCNCC2COc2ccc(Cl)cc2)cc1` (centres unmarked) [Example 2, 2-(4-Chlorophenoxymethyl)-1-(4-propylphenyl)piperazine hydrochloride], for which, on P2X4 receptor [2], the half-maximal inhibitory concentration (IC50) turned out to be 7.6 µM. The inhibition at 0.1 µM in series [3] was found to be 31%.

For `CC(C)c1ccc(N2CCNCC2CSc2ccc(Cl)cc2)cc1` (centres unmarked) [Example 17, 2-(4-Chlorophenylsulfanylmethyl)-1-(4-isopropylphenyl)piperazine hydrochloride], at serotonin reuptake, the inhibition at 0.1 µM came to 4%. Besides, on P2X4 receptor [2], the IC50 came to 8.1 µM.

`Cc1cccc(C)c1N1CCNCC1COc1ccc(Cl)cc1.Cl` (centres unmarked) came in with a melting point of 97 to 100 °C.

Regarding `CC(C)NS(=O)(=O)c1ccc(OCC2CNCCN2c2ccc(C(C)C)cc2)cc1` (centres unmarked) [Example 16, 1-(4-Isopropylphenyl)-2-[4-(isopropylsulfamoyl)phenoxymethyl]piperazine hydrochloride], the inhibition at 0.1 µM on serotonin reuptake amounted to 11%. Besides, on P2X4 receptor [2], the IC50 turned out to be 2.8 µM.

For `CC(C)c1ccc(N2CCNCC2COc2ccc(Cl)cc2)cc1` (centres unmarked) [Example 1, 2-(4-Chlorophenoxymethyl)-1-(4-isopropylphenyl)piperazine hydrochloride], on P2X4 receptor [2], the half-maximal inhibitory concentration (IC50) worked out at 6.9 µM. Also, the inhibition at 0.1 µM in series [3] came to 17%.

Take `CC(C)c1ccc(N2CCNCC2COc2ccc3c(c2)OCO3)cc1` (centres unmarked) [Example 11, 1-(4-Isopropylphenyl)-2-(3,4-methylenedioxyphenoxymethyl)piperazine hydrochloride]: the 50% inhibitory concentration (IC50) on P2X4 receptor [2] worked out at 7.4 µM.

With `Fc1ccc([C@@H]2CCNC[C@H]2COc2ccc3c(c2)OCO3)cc1` [Paroxetine], the “P2X4 receptor antagonism (in words)” value at P2X4 receptor [1] was “shows P2X4 receptor antagonism”.
